The values below come from paper PMC3138190 (Bioorganic & medicinal chemistry, 2011).

One test addresses T1, human DHFR (Homo sapiens, UniProt P00374).
T1 sequence (P00374 1-187): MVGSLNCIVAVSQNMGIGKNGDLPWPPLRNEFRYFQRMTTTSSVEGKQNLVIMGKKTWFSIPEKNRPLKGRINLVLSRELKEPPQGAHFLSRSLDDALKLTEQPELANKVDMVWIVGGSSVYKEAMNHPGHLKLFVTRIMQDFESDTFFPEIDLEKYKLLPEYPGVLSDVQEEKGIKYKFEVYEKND
Nature of the test: Dihydrofolate reductase. Format: biochemical. To be noted: for activity against DHFR in words: DHFR from different sources.

In another test the target is human TS (Homo sapiens, UniProt P04818). Nature of the test: Thymidylate synthase. Format: biochemical.
Chain of human TS (P04818 whole entry): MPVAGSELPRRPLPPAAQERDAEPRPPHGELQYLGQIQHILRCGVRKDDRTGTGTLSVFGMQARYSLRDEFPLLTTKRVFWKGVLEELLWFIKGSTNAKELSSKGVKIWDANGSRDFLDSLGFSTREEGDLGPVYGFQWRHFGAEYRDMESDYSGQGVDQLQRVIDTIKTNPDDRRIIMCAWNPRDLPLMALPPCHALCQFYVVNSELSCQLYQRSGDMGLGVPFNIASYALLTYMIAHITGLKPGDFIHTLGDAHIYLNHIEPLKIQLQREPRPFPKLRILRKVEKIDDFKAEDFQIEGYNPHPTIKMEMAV
In test [1] the test system is hFPGS, from CCRF-CEM cells. The conditions noted are these: at concentrations up to 1045 μM; cited from earlier work.
The subject of another test is FPGS. The conditions noted are these: addition of only one additional glutamic acid; cited from earlier work.

Each structure is given as a SMILES string.

Turning to `Nc1nc2sc3cccc(CNc4ccc(C(=O)N[C@@H](CCC(=O)O)C(=O)O)cc4)c3c2c(=O)[nH]1` [Compound 6, N-(4-{[(2-amino-4-oxo-3,4-dihydro[1]benzothieno[2,3-d]pyrimidin-5-yl)methyl]amino}benzoyl)-L-glutamic acid], the “potency against hDHFR relative to MTX (less potent)” value on human DHFR was “about 5 times”.

Regarding `Cc1nc2sc3cccc(CNc4ccc5c(c4)CN([C@@H](CCC(=O)O)C(=O)O)C5=O)c3c2c(=O)[nH]1` [Compound 5, (2S)-2-(5-{[(2-methyl-4-oxo-3,4-dihydro[1]benzothieno[2,3-d]pyrimidin-5-yl)methyl]amino}-1-oxo-1,3-dihydro-2H-isoindol-2-yl)pentanedioic acid], the “activity against DHFR in words” value at human DHFR was “inactive”. Further, on human TS (hTS, rigid versus flexible side chain, 2-methyl), the “potency against hTS relative to 4 (less potent)” value is recorded as 3 fold.

As for `Cc1nc2sc3cccc(CNc4ccc(C(=O)N[C@@H](CCC(=O)O)C(=O)O)cc4)c3c2c(=O)[nH]1` [Compound 4, N-(4-{[(2-methyl-4-oxo-3,4-dihydro[1]benzothieno[2,3-d]pyrimidin-5-yl)methyl]amino}benzoyl)-L-glutamic acid], the “activity against DHFR in words” value on human DHFR is “inactive”.

As for `Nc1nc2sc3cccc(CNc4ccc5c(c4)CN([C@@H](CCC(=O)O)C(=O)O)C5=O)c3c2c(=O)[nH]1` [Compound 7, (2S)-2-(5-{[(2-Amino-4-oxo-3,4-dihydro[1]benzothieno[2,3-d]pyrimidin-5-yl)methyl]amino}-1-oxo-1,3-dihydro-2H-isoindol-2-yl)pentanedioic acid], the “potency against hDHFR relative to MTX (less potent)” value at human DHFR is reported as “about 5 times”. In addition, the “potency against hTS relative to compound 1 (more potent)” value on human TS (hTS) turned out to be 2 fold. Moreover, the “potency relative to 6” value on human TS (rigid versus flexible side chain, 2-amino) is reported as “twice as potent”.

Take `Cc1[nH]c2nc(N)[nH]c(=O)c2c1Sc1ccc(C(=O)N[C@@H](CCC(=O)O)C(=O)O)cc1` [Compound 3, N-{4-[(2-amino-6-methyl-4-oxo-4,7-dihydro-3H-pyrrolo[2,3-d]pyrimidin-5-yl)thio]benzoyl}-L-glutamic acid]: in test [1], the “substrate activity for hFPGS” value is reported as “not a substrate”.

Consider `Cc1nc2ccc3ccc(CNc4ccc5c(c4)CN([C@@H](CCC(=O)O)C(=O)O)C5=O)cc3c2c(=O)[nH]1` [Compound 2], for which the “substrate activity for FPGS” value with FPGS is listed as “excellent substrate”.
